In PubChem BioAssay AID192 (DTP/NCI, 2004):
Where “and” joins values, the source holds several entries; their conditions need not be identical. Equal values may be shown once. Inconclusive results and toxic doses are left out. The calls were made as follows: active = survival T/C of 150% or more; inactive = T/C below 125% in these data.

Tested on: BDF1 mice, B16 melanoma ip, median survival T/C
Assay: NCI In Vivo Anticancer Drug Screen. Data for tumor model B16 Melanoma (intraperitoneal) in B6D2F1 (BDF1) mice
Details: endpoint: median survival time, schedule: Q01DX009 (ip), higher = longer survival
In short: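 Mice with transplantable tumors; drug vs vehicle groups; endpoint survival or tumor size; value = T/C.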

[1] = dose: 100.0 mg/kg/injection, vehicle: Klucel (hydroxypropylcellulose) (HPC)
[2] = dose: 200.0 mg/kg/injection, vehicle: Klucel (hydroxypropylcellulose) (HPC)
[3] = dose: 400.0 mg/kg/injection, vehicle: Klucel (hydroxypropylcellulose) (HPC)
[4] = dose: 6.25 mg/kg/injection, vehicle: saline with Tween-80
[5] = dose: 12.5 mg/kg/injection, vehicle: saline with Tween-80
[6] = dose: 25.0 mg/kg/injection, vehicle: saline with Tween-80
[7] = dose: 25.0 mg/kg/injection, vehicle: Klucel (hydroxypropylcellulose) (HPC)
[8] = dose: 50.0 mg/kg/injection, vehicle: Klucel (hydroxypropylcellulose) (HPC)
[9] = dose: 3.12 mg/kg/injection, vehicle: Klucel (hydroxypropylcellulose) (HPC)
[10] = dose: 6.25 mg/kg/injection, vehicle: Klucel (hydroxypropylcellulose) (HPC)
[11] = dose: 12.5 mg/kg/injection, vehicle: Klucel (hydroxypropylcellulose) (HPC)
[12] = dose: 1.56 mg/kg/injection, vehicle: saline with Tween-80
[13] = dose: 3.12 mg/kg/injection, vehicle: saline with Tween-80

Measured: T/C

CCCCC/C(C)=N\Nc1ccccn1
inactive: dose: 12.5 mg/kg/injection, vehicle: saline sonified 106 % of control | dose: 25.0 mg/kg/injection, vehicle: saline sonified 100 % of control | dose: 50.0 mg/kg/injection, vehicle: saline sonified 102 % of control | dose: 100.0 mg/kg/injection, vehicle: saline sonified 100 % of control

Oc1cc(Br)ccc1C=Nc1ccc(N2CCCCC2)cc1
inactive: [1] 106 % of control | [2] 93 % of control | [3] 93 % of control

O=[N+]([O-])c1ccc(/C=N/c2ncc(Br)s2)o1
inactive: [4] 95 % of control | [5] 93 % of control

CN1CCN(C2=C(Cl)C(=O)c3ccccc3C2=O)CC1
inactive: dose: 1.25 mg/kg/injection, vehicle: saline 95 % of control | dose: 2.5 mg/kg/injection, vehicle: saline 88 % of control

CC/C(C)=C1\OC(=O)C(C)C(O)C(Cc2cccnc2)NC(=O)C(NC(=O)c2ncccc2O)C(C)OC1=O (stereo not drawn)
inactive: dose: 0.75 mg/kg/injection, vehicle: Klucel (hydroxypropylcellulose) (HPC) 118 % of control | dose: 1.5 mg/kg/injection, vehicle: Klucel (hydroxypropylcellulose) (HPC) 98 % of control | dose: 3.0 mg/kg/injection, vehicle: Klucel (hydroxypropylcellulose) (HPC) 99 % of control | [4] 87 % of control | [5] 97 % of control | [6] 96 % of control

Cc1ccc(SSc2ccc(C)cc2[N+](=O)[O-])c([N+](=O)[O-])c1
inactive: [7] 100 % of control | [8] 89 % of control | [1] 86 % of control and 93 % of control

COc1c(I)c2c(c(OC)c1OC)-c1ccc(OC)c(=O)cc1C(NC(C)=O)CC2 (stereo not drawn)
inactive: dose: 0.78 mg/kg/injection, vehicle: Klucel (hydroxypropylcellulose) (HPC) 104 % of control | dose: 1.56 mg/kg/injection, vehicle: Klucel (hydroxypropylcellulose) (HPC) 104 % of control and 124 % of control | [9] 112 % of control | [10] 121 % of control | [11] 112 % of control

O=[N+]([O-])O.[Cu+2].[NH-]CC[NH-].[NH-]CC[NH-]
inactive: dose: 3.0 mg/kg/injection, vehicle: saline 116 % of control | dose: 6.0 mg/kg/injection, vehicle: saline 122 % of control | dose: 12.0 mg/kg/injection, vehicle: saline 102 % of control | dose: 12.5 mg/kg/injection, vehicle: saline 87 % of control

COC1C(CO)OC(n2cnc3c(=S)nc(N)[nH]c32)C1O (stereo not drawn)
inactive: [11] 112 % of control | [7] 103 % of control | [8] 108 % of control

Cc1ccc[c]([Hg][Cl])c1N=Nc1ccccc1
inactive: dose: 0.39 mg/kg/injection, vehicle: saline with Tween-80 101 % of control | dose: 0.78 mg/kg/injection, vehicle: saline with Tween-80 100 % of control | [12] 97 % of control | [13] 97 % of control | [4] 94 % of control

C1CN2CCC1CC2
inactive: [12] 102 % of control | [13] 102 % of control | [4] 92 % of control and 99 % of control | [5] 86 % of control and 91 % of control | [6] 86 % of control and 91 % of control

Nc1ncc(CNc2ccc(C(=O)NC(CCC(=O)O)C(=O)O)cc2)c(N)n1 (stereo not drawn)
inactive: [9] 107 % of control | [10] 103 % of control | [11] 111 % of control | [7] 114 % of control | [8] 108 % of control

CCCCC(C)(C(=O)OCC)C(=O)OCC
inactive: [11] 108 % of control | [7] 101 % of control | [8] 102 % of control | [1] 101 % of control | [2] 102 % of control | [3] 94 % of control
